Results on eleven molecules are retold here after patent publication US12180192B2, “Modulators of THR-β and methods of use thereof” (ALIGOS THERAPEUTICS, INC., priority 2019, dated 2024).

Molecules are shown by their SMILES. A value given as a limit tells only on which side of the number the result lay.

The target in assay [1] is T1, human thyroid receptor beta ligand-binding domain (LBD) (Homo sapiens, UniProt P10828).
T1 construct: purchased Invitrogen
T1 sequence (P10828 217-461 limits assumed): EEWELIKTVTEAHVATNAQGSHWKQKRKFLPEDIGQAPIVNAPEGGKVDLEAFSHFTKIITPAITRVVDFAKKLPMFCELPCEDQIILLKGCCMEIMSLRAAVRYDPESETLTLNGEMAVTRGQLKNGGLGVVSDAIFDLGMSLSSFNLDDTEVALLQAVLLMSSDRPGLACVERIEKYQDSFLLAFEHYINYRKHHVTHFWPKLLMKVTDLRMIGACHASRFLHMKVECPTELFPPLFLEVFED
The assay is described as follows: TR-FRET thyroid receptor beta coactivator assay (THR biochemical assay, Assay 1). The conditions noted are these: for EC50: THR-beta, TR-FRET coactivator assay, read-out: Activity category Assay 1 (EC50, THR-beta agonist); for Emax: Table 5, Assay 1, THRβ, read-out: Activity category Assay 1 THRβ (Emax). Put shortly:
(§1)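 Agonist-driven coactivator recruitment measured by TR-FRET: terbium anti-GST antibody (2 nM) bound to GST-LBD of TRβ or TRα (1 nM final, stated for β), with fluorescein SRC2-2 peptide at 200 nM. Compounds at 1% DMSO. Read after 1 h, room temperature, protected from light.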
For orientation: Time-resolved FRET reads energy transfer from a long-lived donor to a nearby acceptor.

In another assay the target is T2, THR alpha (Homo sapiens, UniProt P10827).
T2 construct: expressed in transfected cells; host or cells: HEK293T (ATCC CRL-3216)
T2 sequence (P10827 1-410 isoform P10827-2): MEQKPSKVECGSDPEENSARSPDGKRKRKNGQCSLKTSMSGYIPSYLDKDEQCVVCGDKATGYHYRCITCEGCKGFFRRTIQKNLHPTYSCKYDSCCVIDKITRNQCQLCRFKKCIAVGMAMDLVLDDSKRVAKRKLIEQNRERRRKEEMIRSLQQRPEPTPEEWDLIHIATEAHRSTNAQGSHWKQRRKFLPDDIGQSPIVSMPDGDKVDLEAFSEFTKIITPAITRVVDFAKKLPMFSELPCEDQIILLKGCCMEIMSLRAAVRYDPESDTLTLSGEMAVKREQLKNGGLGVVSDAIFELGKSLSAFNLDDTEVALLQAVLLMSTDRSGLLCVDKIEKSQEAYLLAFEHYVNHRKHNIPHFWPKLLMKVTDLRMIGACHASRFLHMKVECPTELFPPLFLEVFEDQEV
T2 sequence (P19793 1-462 partner): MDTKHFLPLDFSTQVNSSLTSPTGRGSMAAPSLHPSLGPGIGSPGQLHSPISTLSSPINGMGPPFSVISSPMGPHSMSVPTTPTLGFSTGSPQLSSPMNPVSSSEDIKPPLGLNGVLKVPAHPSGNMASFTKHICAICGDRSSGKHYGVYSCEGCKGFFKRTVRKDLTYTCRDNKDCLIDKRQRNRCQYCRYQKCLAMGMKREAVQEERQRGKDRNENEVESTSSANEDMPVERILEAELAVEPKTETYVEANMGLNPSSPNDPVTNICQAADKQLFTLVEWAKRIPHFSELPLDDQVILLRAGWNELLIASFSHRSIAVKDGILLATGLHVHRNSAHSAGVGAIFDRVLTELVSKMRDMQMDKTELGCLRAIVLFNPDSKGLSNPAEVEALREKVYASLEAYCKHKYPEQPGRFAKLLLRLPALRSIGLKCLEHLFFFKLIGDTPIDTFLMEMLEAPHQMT
The assay is described as follows: HEK293T THR alpha/RXR luciferase reporter assay (Assay 2). In kind it is cell-based. The conditions noted are these: Assay 2; for Emax: HEK-293T, Table 5, THRα, read-out: Activity category Assay 2 THRα (Emax); for EC50: Table 4, THR-alpha, read-out: Activity category Assay 2 (EC50, THR-alpha agonist activity). In a few lines:
(§2)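 Compounds tested as ten-point five-fold dilution series for 18-24 h on transiently transfected HEK293T cells carrying TRE-driven luciferase plus RXR and either THR alpha or beta expression plasmids. Read-out by One-Glo luminescence, expressed as percent agonism relative to negative and positive controls.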
A general note: A reporter such as luciferase makes a cellular process visible.

Another assay concerns the target T3, THR beta (Homo sapiens, UniProt P10828).
T3 construct: expressed in transfected cells; host or cells: HEK293T (ATCC CRL-3216)
T3 sequence (P10828 1-461): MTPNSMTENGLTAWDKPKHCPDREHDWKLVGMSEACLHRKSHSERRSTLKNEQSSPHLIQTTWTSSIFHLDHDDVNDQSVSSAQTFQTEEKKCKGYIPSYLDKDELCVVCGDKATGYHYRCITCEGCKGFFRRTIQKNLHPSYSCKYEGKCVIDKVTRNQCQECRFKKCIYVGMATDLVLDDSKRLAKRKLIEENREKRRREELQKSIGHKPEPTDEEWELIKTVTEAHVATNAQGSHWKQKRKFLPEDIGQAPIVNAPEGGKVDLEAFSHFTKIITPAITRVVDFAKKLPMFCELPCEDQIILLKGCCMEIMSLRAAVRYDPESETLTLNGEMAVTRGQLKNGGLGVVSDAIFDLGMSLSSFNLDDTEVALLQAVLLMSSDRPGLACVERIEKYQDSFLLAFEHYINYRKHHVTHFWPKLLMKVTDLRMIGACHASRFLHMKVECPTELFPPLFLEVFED
T3 sequence (P19793 1-462 partner): T2 sequence (P19793 1-462 partner)
The assay is described as follows: HEK293T THR beta/RXR luciferase reporter assay (Assay 2). It is filed as cell-based. The conditions noted are these: for Emax: HEK-293T, Table 5, Assay 2, THRβ, read-out: Activity category Assay 2 THRβ (Emax); for EC50: THR-beta, HEK293T reporter assay, read-out: Activity category Assay 2 (EC50, THR-beta agonist). In a few lines: as §2

The target of assay [2] is T4, human thyroid receptor alpha ligand-binding domain (LBD) (Homo sapiens, UniProt P10827).
T4 construct: purchased Invitrogen
Kind of assay: TR-FRET thyroid receptor alpha coactivator assay (THR biochemical assay, Assay 1). The conditions noted are these: for EC50: Table 4, THR-alpha, read-out: Activity category Assay 1 (EC50, THR-alpha agonist activity); for Emax: Table 5, THRα, read-out: Activity category Assay 1 THRα (Emax). Put shortly: as §1

As usually defined, the EC50 is the concentration that produces a half-maximal response. In general, Emax refers to the maximal effect, on the per cent scale that the assay sets.

With `Nc1nn(-c2cc(Cl)c(Oc3n[nH]c(=O)cc3-c3ccccc3)c(Cl)c2)c(=O)[nH]c1=O` [Compound 63-A, 6-amino-2-(3,5-dichloro-4-((6-oxo-4-phenyl-1,6-dihydropyridazin-3-yl)oxy)phenyl)-1,2,4-triazine-3,5(2H,4H)-dione], the EC50 is greater than 25000 nM in assay [1], greater than 10000 nM on THR alpha, greater than 10000 nM on THR beta and greater than 25000 nM in assay [2]. Moreover, the Emax (in assay [1]; at THR alpha; at THR beta; in assay [2]) was less than 50% each time.
Take `CC1(C)C(=O)Nc2nnc(Oc3c(Cl)cc(-n4nc(C#N)c(=O)[nH]c4=O)cc3Cl)cc21` [Compound 74, 2-[3,5-dichloro-4-[(5,5-dimethyl-6-oxo-7H-pyrrolo[2,3-c]pyridazin-3-yl)oxy]phenyl]3,5-dioxo-1,2,4-triazine-6-carbonitrile]: the EC50 is 1000 to 25000 nM in assay [1], greater than 10000 nM on THR alpha, greater than 10000 nM on THR beta and 1000 to 25000 nM in assay [2]. Also, the Emax in assay [1] was 50 to 75%; at THR alpha, less than 50%; at THR beta it was less than 50%; in assay [2], less than 50%.
On to `Nc1nn(-c2cc(Cl)c(Oc3cc(-c4ccccc4)c(=O)[nH]n3)c(Cl)c2)c(=O)[nH]c1=O` [Compound 63, 6-amino-2-[3,5-dichloro-4-[(6-hydroxy-5-phenylpyridazin-3-yl)oxy]phenyl]-4H-1,2,4-triazine-3,5-dione], for which the concentration giving a half-maximal response (EC50) in assay [1] lay in the range of 50 to 250 nM; on THR alpha, 250 to 1000 nM; at THR beta, 50 to 250 nM; in assay [2] it was 250 to 1000 nM. Besides, the Emax in assay [1] was less than 50%; at THR alpha it was 50 to 75%; at THR beta, greater than 75%; in assay [2], less than 50%.
Take `CCCc1c[nH]c2ccc(Oc3c(Cl)cc(-n4nc(C#N)c(=O)[nH]c4=O)cc3Cl)cc12` [Compound 48, 2-[3,5-dichloro-4-[(3-propyl-1H-indol-5-yl)oxy]phenyl]-3,5-dioxo-4H-1,2,4-triazine-6-carbonitrile]: the EC50 in assay [1] is less than 50 nM; at THR alpha, 250 to 1000 nM; at THR beta, 50 to 250 nM; in assay [2], less than 50 nM. Further, the Emax is 50 to 75% in assay [1], greater than 75% at THR alpha, greater than 75% on THR beta and 50 to 75% in assay [2].
Turning to `Cc1cc(-n2nc(C#N)c(=O)[nH]c2=O)cc(C)c1Cc1ccc2[nH]nc(C(C)C)c2c1` [Compound 57, 2-(4-((3-Isopropyl-1H-indazol-5-yl)methyl)-3,5-dimethylphenyl)-3,5-dioxo-2,3,4,5-tetrahydro-1,2,4-triazine-6-carbonitrile], the EC50 in assay [1] is less than 50 nM; at THR alpha it was 250 to 1000 nM; at THR beta, 50 to 250 nM; in assay [2], less than 50 nM. The Emax in assay [1] is less than 50%; at THR alpha it was greater than 75%; on THR beta, greater than 75%; in assay [2], less than 50%.
Turning to `Nc1nn(-c2cc(Cl)c(Oc3cc(C45CC(C4)C5)c(=O)[nH]n3)c(Cl)c2)c(=O)[nH]c1=O` [Compound 95], the EC50 in assay [1] was in the range of 50 to 250 nM; on THR alpha, 250 to 1000 nM; on THR beta, 50 to 250 nM; in assay [2], 250 to 1000 nM. In addition, the Emax is less than 50% in assay [1], less than 50% on THR alpha, greater than 75% at THR beta and less than 50% in assay [2].
Consider `N#Cc1nn(-c2cc(Cl)c(Oc3ccc4[nH]cc(Cc5ccccc5)c4c3)c(Cl)c2)c(=O)[nH]c1=O` [Compound 46, 2-[4-[(3-benzyl-1H-indol-5-yl)oxy]-3,5-dichlorophenyl]-3,5-dioxo-4H-1,2,4-triazine-6-carbonitrile], for which the EC50 is less than 50 nM in assay [1], greater than 10000 nM on THR alpha, 1000 to 10000 nM at THR beta and greater than 25000 nM in assay [2]. For the same molecule, the Emax is less than 50% in assay [1], less than 50% on THR alpha, 50 to 75% on THR beta and less than 50% in assay [2].
As to `Cc1cc(-n2nc(N)c(=O)[nH]c2=O)cc(C)c1Cc1ccc2c(c1)C1(CCCC1)C(=O)N2` [Compound 150, 6-Amino-2-(3,5-dimethyl-4-((2′-oxospiro[cyclopentane-1,3′-indolin]-5′-yl)methyl)phenyl)-1,2,4-triazine-3,5(2H,4H)-dione], the EC50 (in assay [1]; on THR alpha; at THR beta; in assay [2]) was less than 50 nM in each case. In addition, the Emax in assay [1] is less than 50%; on THR alpha, 50 to 75%; at THR beta, 50 to 75%; in assay [2], less than 50%.
For `CC(C)c1cc(Oc2c(Cl)cc(-c3nn(C(F)F)c(=O)[nH]c3=O)cc2Cl)n[nH]c1=O` [Compound 28, 6-[3,5-dichloro-4-[(5-isopropyl-6-oxo-1H-pyridazin-3-yl)oxy]phenyl]-2-(difluoromethyl)-4H-1,2,4-triazine-3,5-dione], the EC50 in assay [1] fell in the range of 50 to 250 nM; at THR alpha it was 1000 to 10000 nM; on THR beta, 250 to 1000 nM; in assay [2], 250 to 1000 nM. Further, the Emax in assay [1] is less than 50%; on THR alpha, 50 to 75%; on THR beta, greater than 75%; in assay [2], 50 to 75%.
`Nc1nn(-c2cc(Cl)c(Oc3cc(C4(F)CCCC4)c(=O)[nH]n3)c(Cl)c2)c(=O)[nH]c1=O` [Compound 144, 6-amino-2-(3,5-dichloro-4-[[5-(1-fluorocyclopentyl)-6-oxo-1H-pyridazin-3-yl]oxy]phenyl)-4H-1,2,4-triazine-3,5-dione]: the EC50 was in the range of 50 to 250 nM in assay [1], 1000 to 10000 nM at THR alpha, 250 to 1000 nM at THR beta and 250 to 1000 nM in assay [2]. Moreover, the Emax was less than 50% in assay [1], 50 to 75% on THR alpha, 50 to 75% on THR beta and less than 50% in assay [2].
Consider `Nc1nn(-c2cc(Cl)c(Oc3cc(C(O)C4CCCC4)c(=O)[nH]n3)c(Cl)c2)c(=O)[nH]c1=O` (stereo not shown) [Compound 77, 6-amino-2-[3,5-dichloro-4-([5-[cyclopentyl(hydroxy)methyl]-6-oxo-1H-pyridazin-3-yl]oxy)phenyl]-4H-1,2,4-triazine-3,5-dione], for which the EC50 was in the range of 50 to 250 nM in assay [1], 250 to 1000 nM at THR alpha, 50 to 250 nM at THR beta and 250 to 1000 nM in assay [2]. The Emax is less than 50% in assay [1], greater than 75% at THR alpha, greater than 75% at THR beta and 50 to 75% in assay [2].
